In one assay the test system is WNT target genes. Briefly: qPCR of WNT target genes in irradiated human colonic organoids. In kind it is cell-based. The note with it: epithelial cells from irradiated human colonic organoids treated with BCN057. The procedure:
(B-C, Data was the average of 3 human subjects).
To examine the effect of BCN057 on human intestinal, epithelial tissue surgical specimen collected from normal colon at least 10 cm apart from malignant site was used to develop ex vivo crypt organoid. At a dose level of 8 Gy all the budding crypts have been disappeared in the organoids. […] The effect of BCN057 on mRNA level of β-catenin target genes in organoids was also evaluated.

For a further assay, the system named is β-catenin target genes. In words: Real-time PCR of β-catenin target genes in crypt cells. The format is in vivo. The note with it: crypt epithelial cells, irradiated mice treated with BCN057 vs irradiated control. As for the experimental part: To compare the mRNA levels of β-catenin target genes in intestinal crypt cells from irradiated mice treated with BCN057 or PBS real-time PCR were performed using primer pairs for the genes Ephb2, Ascl, Olf, Tcf, Lef, Sox9 and Axin. RNA was isolated from crypt cells using RNeasy mini kit from Qiagen. Preparation of cDNA followed by real-time PCR array was performed according to manufacturer protocol (Qiagen).

Assay [1] relates to HEK293 cells having TCF/LEF luciferase reporter construct. Briefly: TCF/LEF (Topflash) reporter assay. The format is cell-based, human. The note with it: graded doses of BCN057 vs vehicle control, 24 hr. The procedure: To determine the canonical WNT activity of BCN057 HEK293 cells (Signosis, Santa Clara, Calif.) having TCF/LEF luciferase reporter construct were treated with BCN057 or vehicle control or PBS. LiCl (10 mM) treatment was used as positive control for luciferase activity. Luciferase activity was determined 24 hr after using Dual-Luciferase Reporter Assay System (Promega) as per manufacturer's protocol. HEK293 cells having FOPFLASH construct (mutated TCF/LEF-binding site) were used as negative control. HEK293 (human embryonic kidney) cell line was routinely characterized in the lab based on morphology and gene-expression patterns. Cells were confirmed to be free of mycoplasma contamination.
(In a reporter assay the amount or activity of a reporter protein is the signal.)

Another assay concerns NCI 60 cancer cell lines. In words: NCI 60 cancer cell line screen. The format is cell-based. The note with it: BCN057 10 uM, 48 hours, sulforhodamine B assay. The procedure: BCN057 was first examined in the National Cancer Institute (NCI) 60 cancer cell line platform. Several of these cell lines are known to be positive for dysregulation of the Wnt/b-catenin signaling pathway. […] Next we examined the effect of BCN057 in human colonic tumor derived organoids exposed to irradiation.
100 μL of each cell preparation was tested in accordance with its particular type and density, ranging from 5000-40,000 cells per well in a 96-well microtiter plate, corresponding to their own growth rate. BCN057 was evaluated 10 uM and incubation for 48 hours in a 5% CO2 atmosphere with 100% humidity. Proliferation was assayed using the sulforhodamine B assay with a plate reader to read the optical densities.
In general terms: The SRB assay estimates cell density from bound dye.

The values below come from US11364231B2, “Methods of treating radiation induced gastrointestinal syndrome (RIGS) and related disease states using YEL002/BCN057” (priority 2017, dated 2022).

Entries after “also recorded” stand apart in the source; their conditions may differ.

`COc1ccc2cc(-c3nc4ccc(C)cn4c3NCc3ccco3)c(=O)[nH]c2c1` [BCN057, 3-(3((furan-2-ylmethyl)ammo)-6-methylimidazo[1,2-a]pyridine-2-yl)-6-methoxyquinolin-2(1H)-one]: the “mRNA level of WNT / β-catenin target genes” value in the assay on WNT target genes is “several fold increase; also recorded: increases”. Also, in the assay with β-catenin target genes, the “mRNA level of β-catenin target genes” value is “several fold increases”. Besides, in assay [1], the “Luciferase activity (WNT activity)” value is “significant increase; also recorded: higher Luciferase activity; also recorded: strong WNT activity”. Also, the proliferative response entry in the assay on NCI 60 cancer cell lines is given as “None of these cells showed any proliferative response”.
